Experimental data: patent EP2714063B1, “VEGFR2/3-ACTIVATING AGENT FOR USE IN THE TREATMENT OF COGNITIVE DYSFUNCTIONS” (priority 2011, dated 2012)

Tests used:
VEGFD = type: cell-based, C57BL/6 mice; details: treatment from DIV5 to DIV10; 1 µM TTX, 10 µM MK801, 10 µM nifedipine
Procedure: RNA extraction and cDNA synthesis. Total RNA was isolated at DIV10 to DIV13 from hippocampal primary neuron cultures or isolated brain tissues with Rneasy Mini Kit (Qiagen, Hilden, Germany) including an optional Dnase I treatment at room temperature for 15 min according to manufacturer's instructions (Qiagen). 1.2 µg of extracted RNA was reverse transcribed into first strand cDNA using High Capacity cDNA Reverse Transcription kit (Applied Biosystems, Foster City, CA).
Real time quantitative PCR. Quantitative reverse transcriptase PCR (qRT-PCR) was done on an ABI7300 thermal cycler using Universal qRT-PCR master mix with TaqMan Gene Expression Assays for the indicated genes (Applied Biosystems). The following TaqMan Gene Expression Assays were used in this study: Gusb (Mm00446953_m1), cFos (Mm00487425_m1), VEGFD (Mm00438965_m1), VEGFC (Mm01202432_m1), VEGF (Mm01281449_m1), VEGFR3 (Mm01292618_m1), beta-actin (Mm00607939_s1), beta-2 microglobulin (Mm00437762_m1), CBP (Mm01342435_m1), p38 MAPK alpha (Mm00442497_m1), p38 MAPK beta (Mm00440955_m1). Expression of target genes was normalized against the expression of Gusb as endogenous control gene. Data were derived from at least 5 independent experiments.

hippocampal neurons = assay: Morphometric analyses (total dendritic length, Sholl analysis, spine density) of cultured neurons; type: cell-based, C57BL/6 mice
Procedure: Hippocampal cultures and transfection. Hippocampal neurons from newborn C57BL/6 mice were cultured as known in the art. Experiments were done after a culturing period of 10 to 14 days in vitro (DIV). DNA transfection was done on DIV8 using Lipofectamine 2000 (Invitrogen, San Diego, CA). For the studies on dendrite morphology, neurons were analyzed 4-5 days after transfection.
Morphometric analyses. For 3D Sholl Analysis, total dendritic length and spine morphology were calculated using Object-Image freeware software with a specific set of macros (written by Dr. E. Ruthazer, McGill University, Quebec). Briefly, a z-Stack acquisition was imported, calibrated in Object-Image and manually traced. Total dendritic length was then computed. For Sholl analysis, the shell interval was set at 5 µm. All analyses were performed blind. In all in vitro experiments, for each condition, a minimum of 12 neurons from three independent preparations was analyzed. For the Golgi staining quantifications of 20 neurons for each condition from 4 different injected animals per viral construct were traced and analyzed.
Immunocytochemistry. […] For the morphometric analyses, fluorescence images were acquired using a confocal laser-scanning microscope TCS SP2 (Leica, Mannheim, Germany) equipped with an inverted fluorescence microscope DM IRE2 (Leica) and Leica confocal scan software. […]

Row | SMILES | VEGFD expression (mRNA) (VEGFD) | effect on the rVEGFD-induced rescue of dendrite length and complexity (hippocampal neurons; neurons expressing CaMBP4 (and CaMKIVK75E), treated for 3 days with rVEGFD) | Sholl analysis (hippocampal neurons; neurons expressing hrGFP, CaMBP4 or CaMKIVK75E, SB203580 without rVEGFD)
1 | C[C@]12N[C@H](Cc3ccccc31)c1ccccc12 [MK801] | significantly reduced the expression of VEGFD mRNA | – | –
2 | C[S+]([O-])c1ccc(-c2nc(-c3ccncc3)c(-c3ccc(F)cc3)[nH]2)cc1 (stereo not drawn) [SB203580] | – | severely compromised the ability of rVEGFD to rescue the impairment of dendrite length and complexity | no difference compared to the respective untreated controls
